{"source": "patent US8563027B2", "about": "“Drug delivery through hydrogel plugs” (Incept, LLC, priority 2009, dated 2013)", "key": {"[1]": {"settings": "cited from earlier work"}, "[2]": {"experiment": "In vitro release of steroids entrapped in hydrogel compared to free drug in PBS", "format": "physicochemical", "settings": "9% 4a20KSG hydrogel, FIG. 20", "experimental": "A 9% 4a20KSG hydrogel was prepared incorporating three different steroids (flunisolide, budesonide, and triamcinolone acetonide)."}}, "note": "Where two headings read alike, the source gives them in different places.", "data": [{"smiles": "O=C(c1ccccc1)c1ccc2n1CCC2C(=O)O", "note": "(stereo not shown) [Ketorolac]", "values": [{"measurement": "Solubility", "setting": "[1]; in IPB", "result": 10.5, "unit": "mg/mL"}]}, {"smiles": "O=C(O)c1cc(-c2ccc(F)cc2F)ccc1O", "note": "[Diflunisal]", "values": [{"measurement": "Solubility", "setting": "[1]; pH 7", "result": 3.43, "unit": "mg/ml @ pH 7"}]}, {"smiles": "CC(C)Cc1ccc(C(C)C(=O)O)cc1", "note": "(stereo not shown) [Ibuprofen]", "values": [{"measurement": "Solubility", "setting": "[1]; pH 7", "result": 10, "unit": "mg/ml @ pH 7"}]}, {"smiles": "CC(C)OC(=O)CCC/C=C\\C[C@@H]1[C@@H](CC[C@@H](O)CCc2ccccc2)[C@H](O)C[C@@H]1O", "note": "[Latanoprost]", "values": [{"measurement": "Solubility in aqueous solutions", "setting": "[1]", "result": "relatively low solubility"}]}, {"smiles": "CC(C(=O)O)c1ccc(-c2ccccc2)c(F)c1", "note": "(stereo not shown) [Flurbiprofen]", "values": [{"measurement": "Solubility", "setting": "[1]", "result": 0.9, "unit": "mg/mL"}]}, {"smiles": "Cc1cccc(Nc2ccccc2C(=O)[O-])c1C.[Na+]", "note": "[Mefanamic Acid]", "values": [{"measurement": "Solubility", "setting": "[1]; pH 7.1", "result": 40, "unit": "μg/ml @ pH 7.1"}]}, {"smiles": "Cc1ccc(Cl)c(Nc2ccccc2C(=O)[O-])c1Cl.[Na+]", "note": "[Meclofenamate sodium]", "values": [{"measurement": "Solubility", "setting": "[1]; pH 7.2", "result": "<50 μg/mL @ pH 7.2 50 mg/mL @ pH 9.0"}, {"measurement": "Solubility", "setting": "[1]; pH 9.0", "result": "<50 μg/mL @ pH 7.2 50 mg/mL @ pH 9.0"}]}, {"smiles": "CC(C(=O)[O][Ca][O]C(=O)C(C)c1cccc(Oc2ccccc2)c1)c1cccc(Oc2ccccc2)c1", "note": "(stereo not shown) [Fenoprofen Calcium]", "values": [{"measurement": "Solubility", "setting": "[1]; in water", "result": "Slightly soluble in water"}]}, {"smiles": "CCc1cccc2c3c([nH]c12)C(CC)(CC(=O)O)OCC3", "note": "(stereo not shown) [Etodolac]", "values": [{"measurement": "Solubility", "setting": "[1]; in water", "result": "Insoluble in water"}]}, {"smiles": "NC(=O)Cc1cccc(C(=O)c2ccccc2)c1N", "note": "[Nepafenac]", "values": [{"measurement": "Solubility", "setting": "[1]", "result": "<1 mg/ml (The drug is available as 0.1% suspension)"}]}, {"smiles": "CC1(C)O[C@@H]2C[C@H]3[C@@H]4C[C@H](F)C5=CC(=O)C=C[C@]5(C)[C@H]4[C@@H](O)C[C@]3(C)[C@]2(C(=O)CO)O1", "note": "[flunisolide]", "values": [{"measurement": "Release profile in hydrogel compared to free drug in PBS", "setting": "[2]", "result": "slower more sustained drug release profile"}]}, {"smiles": "COc1ccc2c(c1)c(CC(=O)O)c(C)n2C(=O)c1ccc(Cl)cc1", "note": "[Indomethacin]", "values": [{"measurement": "Solubility", "setting": "[1]; pH 7, Form I", "result": 0.54, "unit": "mg/mL"}, {"measurement": "Solubility", "setting": "[1]; pH 7, Form II", "result": 0.80, "unit": "mg/mL"}]}, {"smiles": "Cc1ccc(-c2cc(C(F)(F)F)nn2-c2ccc(S(N)(=O)=O)cc2)cc1", "note": "[Celecoxib]", "values": [{"measurement": "Solubility", "setting": "[1]", "result": 0.005, "unit": "mg/mL"}]}, {"smiles": "COc1c(N2C[C@@H]3CCCN[C@@H]3C2)c(F)cc2c(=O)c(C(=O)O)cn(C3CC3)c12", "note": "[Moxifloxacin]", "values": [{"measurement": "Solubility in aqueous solutions", "setting": "[1]", "result": "readily soluble"}]}]}
